According to PubChem BioAssay (NCI):
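Assay format: 96-well plates, 48-hour exposure. Definition used: TGI = concentration required for complete inhibition of growth.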

Columns and labels:
Assay in all cases: inhibition of tumour cell growth, NCI panel, 48 h
[1] = tested on: 786-0 renal
[2] = tested on: A498 renal
[3] = tested on: A549 NSCLC
[4] = tested on: ACHN renal
[5] = tested on: BT-549 breast
[6] = tested on: CAKI-1 renal
[7] = tested on: COLO 205 colon
[8] = tested on: DU-145 prostate
[9] = tested on: EKVX NSCLC
[10] = tested on: HCC-2998 colon
[11] = tested on: HCT-116 colon
[12] = tested on: HCT-15 colon
[13] = tested on: HL-60(TB) leukemia
[14] = tested on: HOP-62 NSCLC
[15] = tested on: HOP-92 NSCLC
[16] = tested on: HS 578T breast
[17] = tested on: HT29 colon
[18] = tested on: IGROV1 ovarian
[19] = tested on: K-562 leukemia
[20] = tested on: KM12 colon
[21] = tested on: LOX IMVI melanoma
[22] = tested on: M14 melanoma
[23] = tested on: MALME-3M melanoma
[24] = tested on: MCF7 breast
[25] = tested on: MDA-MB-231 breast
[26] = tested on: MDA-MB-435
[27] = tested on: MDA-N
[28] = tested on: MOLT-4 leukemia
[29] = tested on: NCI-H226 lung
[30] = tested on: NCI-H23 lung
[31] = tested on: NCI-H460 lung
[32] = tested on: NCI-H522 lung
[33] = tested on: NCI/ADR-RES ovarian
[34] = tested on: OVCAR-3 ovarian
[35] = tested on: OVCAR-4 ovarian
[36] = tested on: OVCAR-5 ovarian
[37] = tested on: OVCAR-8 ovarian
[38] = tested on: PC-3 prostate
[39] = tested on: RXF 393 renal
[40] = tested on: SF-268 CNS
[41] = tested on: SF-295 CNS
[42] = tested on: SF-539 CNS
[43] = tested on: SK-MEL-2 melanoma
[44] = tested on: SK-MEL-28 melanoma
[45] = tested on: SK-MEL-5 melanoma
[46] = tested on: SK-OV-3 ovarian
[47] = tested on: SN12C renal
[48] = tested on: SNB-19 CNS
[49] = tested on: SNB-75 CNS
[50] = tested on: SR leukemia
[51] = tested on: SW-620 colon
[52] = tested on: T-47D breast
[53] = tested on: TK-10 renal
[54] = tested on: U251 CNS
[55] = tested on: UACC-257 melanoma
[56] = tested on: UACC-62 melanoma
[57] = tested on: UO-31 renal

Measured: TGI

CCOC(=O)c1ccc(N=C/C=C(\Nc2ccc(C(=O)OCC)cc2)C23CC4CC(CC(C4)C2)C3)cc1
> 100 µM: all assays above
